“And” between values parts separate entries of the source, which are not always exact repeats. Identical values can stand only once.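 Five compound concentrations were applied to cells in 96-well plates for 48 hours; endpoints were derived by simple linear interpolation of the resulting dose-response curve. The concentration for 50% growth inhibition is given as GI50. TGI is the concentration that stops growth completely.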
What was measured:
Test in all cases: NCI-60 cell line screen, 48 h
[1] = test system: 786-0 renal
[2] = test system: HCT-15 colon
[3] = test system: K-562 leukemia
[4] = test system: MOLT-4 leukemia
[5] = test system: RXF 393 renal
[6] = test system: SK-MEL-2 melanoma
[7] = test system: UACC-257 melanoma
[8] = test system: LOX IMVI melanoma
[9] = test system: NCI/ADR-RES ovarian
[10] = test system: HS 578T breast

Row | Compound | TGI [1] [µM] | TGI [2] [µM] | TGI [3] | TGI [4] | TGI [5] [µM] | TGI [6] [µM] | TGI [7] | TGI [8] [µM] | GI50 [1] [µM] | GI50 [2] [µM] | GI50 [8] [µM] | GI50 [4] [µM] | GI50 [9] [µM] | TGI [9] [µM] | GI50 [5] | GI50 [6] [µM] | GI50 [7] [µM] | GI50 [3] [µM] | GI50 [10] [µM] | TGI [10] [µM]
1 | COC1OC(COS(=O)(=O)c2ccc(C)cc2)C(O)C(OS(=O)(=O)c2ccc(C)cc2)C1OS(=O)(=O)c1ccc(C)cc1 (configuration not stated) | > 100 | > 100 | > 100 µM | > 100 µM | > 100 | > 100 | > 100 µM |  |  |  |  |  |  |  |  |  |  |  |  | 
2 | CC1=CC(=O)c2c(C=O)c(O)c(O)c(C(C)C)c2C1=O | 45.5 | > 100 | > 100 µM | 66.3 µM | 20.8 | 57.5 |  | 27.6 |  |  |  |  |  |  |  |  |  |  |  | 
3 | Cc1ccc(C(=O)C#Cc2c[nH]c(=O)[nH]c2=O)cc1 | 26.2 | 37.7 | 34.2 µM | 23.8 µM | 12.4 | 27.6 | 34.6 µM | 15 |  |  |  |  |  |  |  |  |  |  |  | 
4 | COc1cc(Nc2nc3cc(C(F)(F)F)ccc3nc2-c2ccccc2)cc(OC)c1OC | > 100 | > 100 | > 100 µM | > 100 µM | 63.8 | > 100 | > 100 µM | > 100 |  |  |  |  |  |  |  |  |  |  |  | 
5 | COc1ccc(CCN2CCC(Nc3nc4ccccc4n3Cc3ccc(F)cc3)CC2)cc1 | 2.77 | 3.16 |  | 4.71 µM | 2.44 | 4.78 | 3.48 µM | 2.79 | 1.46 | 1.51 | 1.38 | 1.67 | 1.59 | 3.32 | 1.16 µM | 2.29 | 1.67 |  |  | 
6 | CCOC(=O)C(C(=O)OCC)=C1N[C@H](C(=O)OCC)CS1 | > 100 | > 100 | > 100 µM | > 100 µM | > 100 | > 100 | > 100 µM | > 100 |  |  |  |  |  |  |  |  |  |  |  | 
7 | COc1ccc(C(=O)CC(=O)C(=O)Nc2ccc(C)c(C)c2)cc1 | > 100 | > 57.1 | > 87 µM | > 100 µM | 97.9 | > 100 | > 100 µM | > 55.7 |  |  |  |  |  |  |  |  |  |  |  | 
8 | O=C(O)c1cccc2cccc(C(=O)O)c12.[Hg] | 29.1 | 29.8 | 15.5 µM | 42.7 µM | 32.3 | 31.6 | 30.8 µM | 27.9 | 15.4 | 14.4 | 14.7 | 19.6 |  |  | 16.8 µM | 17.4 | 16.7 | 1.5 |  | 
9 | COc1ccc(-c2cc(-c3cc(C)ccc3O)[nH]c(=O)n2)cc1 | > 100 |  | > 100 µM | > 100 µM | 88.6 |  | > 100 µM | > 100 |  |  |  |  |  |  |  |  |  |  |  | 
10 | CCCc1nc(NC#N)nc(C(=O)NC23CC4CC(CC(C4)C2)C3)c1C | > 100 | > 100 | > 100 µM | > 100 µM | > 100 | > 100 | > 100 µM | > 100 |  |  |  |  |  |  |  |  |  |  |  | 
11 | NCCCNCCSSC/C=C\CSSCCNCCCN | > 100 | > 100 | 62.3 µM and 65.1 µM | 62 µM and 57.3 µM | > 100 | > 100 | > 100 µM and 76.8 µM | > 100 |  |  |  |  |  |  | 83.3 µM and 30.6 µM |  |  |  |  | 
12 | Oc1ccc(-c2cn3cc(Cl)sc3n2)cc1 | 67.1 | > 100 | > 100 µM | 34.3 µM | > 100 | > 100 | > 100 µM | 86.2 | 18.2 | > 100 | 32.3 | 16.5 |  |  | > 100 µM | > 100 | 46.2 | 36.7 | > 100 | > 100
13 | CCC1CC(C)=CCN1S(=O)(=O)c1ccc(C)cc1 (configuration not stated) | > 100 | 83.7 | > 100 µM | 83.6 µM |  | 27.2 | > 100 µM | 33.6 |  |  |  |  |  |  |  |  |  |  |  | 
14 | COc1ccc(NC(=O)CC(=O)N2N=C(N(CCC#N)c3cccc(C)c3)CC2c2ccccc2)cc1 (configuration not stated) | > 100 | > 100 | > 100 µM | > 100 µM | > 100 | > 100 | > 100 µM |  |  |  |  |  |  |  |  |  |  |  |  | 
15 | O=NN/C(=C1\Nc2ccc([N+](=O)[O-])cc2NC1=O)C(O)c1ccc([N+](=O)[O-])cc1 (configuration not stated) | > 100 | > 100 | > 100 µM | > 100 µM | > 100 |  | > 100 µM | > 100 |  |  |  |  |  |  |  |  |  |  |  | 
16 | COc1ccc(-c2nc(N3CCOCC3)c3sc(CN(C)c4ncc(C(=O)NO)cn4)cc3n2)cn1 | 0.171 |  | > 100 µM |  | 0.0453 | 0.0799 | 0.0466 µM |  | 0.0313 |  |  |  |  |  | < 0.0122 µM | 0.02 | < 0.01 | < 0.01 | < 0.0122 | 0.155

Source: PubChem BioAssay (NCI)
